Patent US20240000740A1, “OMEGA-3 POLYUNSATURATED FATTY ACIDS FOR TREATING / PREVENTING MALE INFERTILITY IN PREPUBERTAL CANDIDATES FOR GONADOTOXIC THERAPIES” (UNIVERSITA' DEGLI STUDI DI PERUGIA, priority 2020, published 2024)
“Also recorded” adds a separate entry of the source.

Experiments:
Format in all cases: cell-based, pig
[1] = system: 5-hydroxymethylcytosine (5hmC); assay: Immunofluorescence analysis of 5hmC in Sertoli cells (SCs) of prepubertal pigs; conditions: 48 hours plus 24 of recovery, compared to untreated SCs
Method: (§1) The animal studies were conducted in accordance with national guidelines (approved Italian animal protection certification A-3143-01) and guidelines of the Committee for the Care and Use of Animals of the University of Perugia. The experimental protocols were approved by the University of Perugia. The newborn prepubertal “Large White” pigs (Farm “Trequattrini”, S. Elena di Marsciano, PG), aged 7-15 days, were used as SC donors. The SCs were isolated in accordance with previously established methods, modified in our laboratory (Luca et al., 2015).
(§2) The SCs were maintained at 37° C. and 5% CO2 in HAMF-12 (Euroclone, MI, Italy) supplemented with 0.166 nM of retinoic acid (Sigma-Aldrich, St. Louis, MO, USA) and 5 mL/500 ml of ITS (Becton Dickinson cat. no. 354352, NJ, USA) in the absence (untreated) or presence of chemotherapeutic drugs for 48 hours plus 24 of recovery at the following concentrations: • Cisplatin 0.33 μM, 1.66 μM and 3.33 μM; • 4-hydroperoxycyclophosphamide (40HP) 50 and 100 μM; • Doxorubicin 0.1 μM, 0.2 μM and 1 μM; • cisplatin 3.33 μM plus EPA 100 μM; • cisplatin 3.33 μM plus 5-aza-2′-deoxy-cytidine (5 AZA) 1 μM.
The untreated SCs and SCs treated with chemotherapeutic drugs (plus EPA or without EPA), were made to grow on round slides pre-treated with gelatine (Sigma-Aldrich). At the end of the treatment, the SCs were fixed for 30 min in 4% paraformaldehyde in phosphate buffer (PBS). Prior to immunolabelling, the cells were subjected to permeabilization (PBS, 0.2% Triton X) for 5 min at room temperature, blocked in 0.5% bovine serum albumin (BSA; Sigma-Aldrich, St. Louis, MO) in PBS for 10 min, and then exposed to the primary anti-5hmC antibody (Santa Cruz Biotechnology, 1:100 in PBS) overnight at 4° C. The cells were washed three times in PBS for 5 min and then exposed to the secondary Alexa-488 labelled antibody (1:500 in PBS). The cells were counterstained with 4′,6-diamidino-2-phenylindole (DAPI) for 1 min after treatment with RNase (10 mg/mL per 10 min.). The negative control for the immunolabelling consisted in skipping the labelling with the primary antibody and passing directly to the secondary antibody. The slides were then mounted with ProLong® Gold Antifade (ThermoFisher) and the images were acquired with an Olympus BX-41 equipped with Cell-F image processing software (Olympus).

GDNF [2] = assay: Western blotting and densitometric analysis of GDNF protein expression in SCs of prepubertal pigs; conditions: 48 hours plus 24 of recovery, compared to untreated SCs
Method: as §1, §2
The SCs were maintained at 37° C. and 5% CO2 in HAMF-12 (Euroclone, MI, Italia) supplemented with 0.166 nM of retinoic acid (Sigma-Aldrich, St. Louis, MO, USA) and 5 mL/500 ml of ITS (Becton Dickinson cat. no. 354352, NJ, USA) in the absence (untreated) or presence of cisplatin 0.5 and 1 μg/ml for 48 hours plus 24 of recovery plus 100 μM EPA.
The SCs were cultured at 37° C. and 5% CO2 in HAMF-12 (Euroclone, MI, Italy) supplemented with 0.166 nM of retinoic acid (Sigma-Aldrich, St. Louis, MO, USA) and 5 mL/500 ml of ITS (Becton Dickinson cat. no. 354352, NJ, USA) in the absence (untreated) or presence of cisplatin 0.5 and 1 μg/ml for 48 hours plus 24 of recovery and with the addition of 100 μM EPA. […] The images were acquired by means of the VersaDoc Imaging System (Bio-Rad Hercules, CA, USA), and the respective signals were quantified using Quantity One software (Bio-Rad) 2.8.

GDNF [3] = assay: Real-time PCR analysis of GDNF gene expression in SCs of prepubertal pigs; conditions: for gene expression of GDNF, real-time PCR: 48 hours plus 24 of recovery, compared to untreated SCs
Method: as §1, §2
Total RNA was isolated from the monolayers of untreated SCs and SCs treated with chemotherapeutic drugs (plus EPA or without EPA) by means of an RNA purification kit (Versagene RNA Cell Kit, Gentra Systems, Minneapolis, MN) and quantified by reading the optical density at 260 nm. Subsequently, 1 μg of total RNA was subjected to RT in a final volume of 20 μl by means of the Maxima First Strand cDNA Synthesis kit (Thermo Scientific, MA, USA). Real-time PCR was performed using 16 ng of cDNA, prepared from the RT reaction, and SYBR Green (Stratagene, Amsterdam, Netherlands). Real-time PCR was performed with an Mx3000P cycler (Stratagene) using FAM for detection and ROX as the reference dye. The level of mRNA for each sample was normalised with respect to the mRNA of β-actin and expressed as a change compared to the level of the untreated control cells.

[4] = SCs treated with doxorubicin 0.1, 0.2 and 1 μM
[5] = SCs treated with 4-hydroperoxycyclophosphamide 50 and 100 μM
[6] = SCs treated with cisplatin 0.33, 1.66 and 3.33 μM

COc1cccc2c1C(=O)c1c(O)c3c(c(O)c1C2=O)C[C@@](O)(C(=O)CO)C[C@@H]3O[C@H]1C[C@H](N)[C@H](O)[C@H](C)O1 [doxorubicin]
5-hydroxymethylcytosine (5hmC), immunofluorescence analysis [1, 4]: progressive reduction; also recorded: significant reduction | protein expression of GDNF, western blotting (GDNF [2]; [4]): significant reduction | gene expression of GDNF, real-time PCR (GDNF [3]; [4]): significant reduction

O=P1(N(CCCl)CCCl)NC(OO)CCO1 (stereo not drawn) [4-hydroperoxycyclophosphamide]
5-hydroxymethylcytosine (5hmC), immunofluorescence analysis [1, 5]: significant reduction | 5-hydroxymethylcytosine (5hmC), immunofluorescence analysis ([1]; SCs treated with 4-hydroperoxycyclophosphamide 50 and 100 μM, listed as 4OHP): progressive reduction | protein expression of GDNF, western blotting (GDNF [2]; [5]): significant reduction | gene expression of GDNF, real-time PCR (GDNF [3]; [5]): significant reduction

Nc1ncn([C@H]2C[C@H](O)[C@@H](CO)O2)c(=O)n1 [AZA, 5-aza-2′-deoxycytidine]
recovery in the expression of GDNF (GDNF [3]; SCs treated with cisplatin 3.33 μM plus 5 AZA 1 μM, compared with EPA treatment): comparable to the one induced by treatment with the fatty acid EPA; also recorded: recovery comparable to that induced by treatment with the fatty acid

N.N.[Cl][Pt][Cl] [Cisplatin]
5-hydroxymethylcytosine (5hmC), immunofluorescence analysis [1, 6]: significant reduction | 5-hydroxymethylcytosine (5hmC), immunofluorescence analysis ([1]; SCs treated with cisplatin 0.33, 1.66 and 3.33 μM, listed as cisplatin): progressive reduction | protein expression of GDNF, western blotting (GDNF [2]; [6]): significant reduction | gene expression of GDNF, real-time PCR (GDNF [3]; [6]): significant reduction
